Key:
[1] = test system: CD44high/CD24low cell population of MDA-MB-231 cells; assay: Flow cytometry of CD44high/CD24low cell population in MDA-MB-231 cells; type: cell-based, human; details: 48 h
Protocol: The MDA-MB-231 cells were treated with the indicated concentrations of compounds 23 and 30 for 48 hours, followed by flow cytometry analysis. Columns show mean of three experiments; bars, SD; **, p<0.01; *, p<0.1.
The treated cells were washed once with phosphate-buffered saline (PBS) and then harvested with Cell Dissociation Buffer (enzyme-free, Invitrogen, cat. #13150-016). Detached cells were washed with PBS containing 1% FCS (a wash buffer), and resuspended in the wash buffer (1,000 cells/100 μl). The cells were stained with combinations of fluorochrome-conjugated monoclonal antibodies obtained from BD Biosciences (San Diego, Calif.) against human CD44 (FITC; cat. #555478) and CD24 (PE; cat. #555428) or their respective isotype controls at concentrations recommended by the manufacturer and incubated at 4° C. in the dark for 30 to 40 min. The labeled cells were washed in the wash buffer, then fixed in PBS containing 1% paraformaldehyde, and then analyzed on a FACSVantage (BD Biosciences) (Sheridan et al. Breast Cancer Res. (2006) 8, R59).
The flow cytometry analysis was performed as follows: The treated cells were washed once with phosphate-buffered saline (PBS) and then harvested with Cell Dissociation Buffer (enzyme-free, Invitrogen, cat. #13150-016). Detached cells were washed with PBS containing 1% FCS (a wash buffer), and resuspended in the wash buffer (1,000 cells/100 μl). The cell were stained with combinations of fluorochrome-conjugated monoclonal antibodies obtained from BD Biosciences (San Diego, Calif., USA) against human CD44 (FITC; cat. #555478) and CD24 (PE; cat. #555428) or their respective isotype controls at concentrations recommended by the manufacturer and incubated at 4° C. in the dark for 30 to 40 min. The labeled cells were washed in the wash buffer, then fixed in PBS containing 1% paraformaldehyde, and then analyzed on a FACSVantage (BD Biosciences) (Sheridan et al., Breast Cancer Res., 2006, 8: R59).
Metformin could selectively target cancer stem cells and reduce the CD44high/CD24low cell population in TNBC cells through activation of AMPK signaling (Hirsch et al., Cancer Research, 2009, 69: 7507-7511). To determine whether EGCG analogs 23 and 30 can reduce the stem cell population in the breast cancer cells, the human breast cancer MDA-MB-231 cells were treated with different concentrations of compounds 23 and 30 for 48 hours. The treated cells were stained with special antibodies against human CD44 (FITC), CD24 (PE) or their respective isotype controls, followed by washing, fixing and analysed by flow cytometry.

p21 protein = p21 protein level, Western blot, MDA-MB-231 cells; type: cell-based, human; details: 3 h
Protocol: (§1) (A) EGCG analogs 23 and 30 inhibited breast cancer cell proliferation. MDA-MB-231 cells were treated with indicated concentrations of 23, 30 or metformin for 24 h, followed by a MTT assay. *, P<0.1; **, P<0.01. Columns, mean of three experiments; bars, SD. (B) EGCG analogs 23 and 30 activated AMPK at a dose-dependent manner, measured by elevated level of phosphor-AMPKα and its downstream proteins of phosphor-Raptor. […] MDA-MB-231 cells were treated with indicated concentrations of 23 or 30 for 3 h, followed by Western blot analysis with the indicated antibodies. The numbers underneath the Western results of p-AMPKα indicated normalized phosphor-AMPKα/β-actin ratios. […]
The Western blot analysis was performed as follows: A whole cell extract was prepared from the treated cells as described previously (Landis-Piwowar et al., Cancer research, 2007, 67: 4303-4310; Chen et al., Cancer research, 2007, 67: 1636-1644; Chen et al., Biochemical pharmacology, 2005, 69: 1421-1432). The cell extracts (30 μg) were then separated by an SDS-PAGE gel and transferred to nitrocellulose membranes. […]

[2] = test system: Human breast cancer MDA-MB-231 cells; assay: MTT cell proliferation assay in MDA-MB-231 cells; type: cell-based; details: indicated concentrations, 24 h, MTT
Protocol: Human breast cancer MDA-MB-231 cells were treated with 25 or 50 μM EGCG analogs for 24 hours, followed by MTT assay. Pro-EGCG was used as a comparison.
Human breast cancer MDA-MB-231 cells with high COMT activity were treated with 50 μM EGCG analogs for 24 hours in the absence or presence of 10 μM DNC, followed by MTT assay. Pro-EGCG was used as a comparison.
as §1
Cells were grown in a 96-well plate. Triplicate wells of cells were treated with indicated concentrations of EGCG or EGCG analogs for 24 h. After aspiration of medium, MTT (1 mg/ml) was then added to the cell cultures, followed by incubation for 3 h at 37° C. After cells were crystallized, MTT was removed and DMSO was added to dissolve the metabolized MTT product. The absorbance was then measured on a Wallac Victor3 1420 Multi-label counter at 540 nm.

Row | Compound | decrease of the CD44high/CD24low population ([1]; 10 μM) | decrease of the CD44high/CD24low population ([1]; 20 μM) | reduction of CD44high/CD24low cell population (in words) [1] | p21 protein level (p21 protein) | inhibition of cell proliferation (in words) [2]
1 | Nc1ccc(C(=O)O[C@H]2Cc3ccccc3C[C@H]2OC(=O)c2ccc(N)cc2)cc1 [Compound 30] | 43.3% | 71.7% | can reduce the CD44high/CD24low cell population | increased levels of p21 protein | inhibit cell proliferation in a dose-dependent manner
2 | O=C(O[C@H]1Cc2ccccc2C[C@H]1OC(=O)c1cc(O)c(Br)c(O)c1)c1cc(O)c(Br)c(O)c1 [Compound 23] | – | – | can reduce the CD44high/CD24low cell population | increased levels of p21 protein | inhibit cell proliferation in a dose-dependent manner
